Assays:
ECHCG [1] = assay: Herbicidal pre-emergence action (Table A2); type: in vivo, Echinochloa crus-galli; details: visual grading after ca. 3 weeks
Method in brief: (§1)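 Weed seeds are sown into sandy loam in pots and covered with soil, with two species per pot, one monocot and one dicot.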

STEME = assay: Herbicidal pre-emergence action (Table A6); type: in vivo, Stellaria media; details: visual grading after ca. 3 weeks
Method in brief: as §1

SETVI [2] = assay: Herbicidal pre-emergence action (Table A5); type: in vivo, Setaria viridis; details: visual grading after ca. 3 weeks
Method in brief: as §1

ECHCG [3] = assay: Herbicidal post-emergence action (Table B3); type: in vivo, Echinochloa crus-galli; details: rated visually after about 3 weeks
Method in brief: (§2)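 Each pot held sandy loam sown with a single mono- or dicot weed species, grown under controlled greenhouse conditions. Test plants were sprayed at the one-leaf stage, and after about 3 weeks of further growth the percentage activity relative to untreated plants was rated visually.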

LOLRI [4] = assay: Herbicidal pre-emergence action (Table A3); type: in vivo, Lolium rigidum; details: visual grading after ca. 3 weeks
Method in brief: as §1

POAAN [5] = assay: Herbicidal post-emergence action (Table B7); type: in vivo, Poa annua
Method in brief: as §2

ALOMY [6] = assay: Herbicidal pre-emergence action (Table A9); type: in vivo, Alopecurus myosuroides; details: visual grading after ca. 3 weeks
Method in brief: as §1

VERPE [7] = assay: Herbicidal post-emergence action (Table B10); type: in vivo, Veronica persica
Description: (§3) Seeds of mono- and dicotyledonous weed plants were placed in plastic pots in sandy loam soil (doubly sown with in each case one species of mono- or dicotyledonous weed plants per pot), covered with soil and cultivated in a greenhouse under controlled growth conditions. 2 to 3 weeks after sowing, the test plants were treated at the one-leaf stage. […] After the test plants had been kept in the greenhouse under optimum growth conditions for about 3 weeks, the activity of the preparations was rated visually in comparison to untreated controls. For example, 100% activity = the plants have died, 0% activity = like control plants.

MATIN [8] = assay: Herbicidal pre-emergence action (Table A4); type: in vivo, Matricaria inodora; details: application rate 1280 g/ha; visual grading after ca. 3 weeks
Method in brief: as §1

VERPE [9] = assay: Herbicidal pre-emergence action (Table A11); type: in vivo, Veronica persica; details: application rate 1280 g/ha; visual grading after ca. 3 weeks
Method in brief: as §1

SETVI [10] = assay: Herbicidal post-emergence action (Table B8); type: in vivo, Setaria viridis; details: application rate 1280 g/ha
Description: as §3

POAAN [11] = assay: Herbicidal pre-emergence action (Table A7); type: in vivo, Poa annua; details: visual grading after ca. 3 weeks
Method in brief: as §1

AMARE [12] = assay: Herbicidal post-emergence action (Table B11); type: in vivo, Amaranthus retroflexus
Description: as §3

ABUTH [13] = assay: Herbicidal pre-emergence action (Table A1); type: in vivo, Abutilon theophrasti; details: application rate 1280 g/ha; visual grading after ca. 3 weeks vs untreated controls (100% = plants have died off, 0% = as control plants)
From the text: (§4) Seeds of mono- and dicotyledonous weed plants were sown in plastic pots (double sowings with one species of mono- and one species of dicotyledonous weed plants per pot), in sandy loam, and covered with soil.

KCHSC = assay: Herbicidal pre-emergence action (Table A10); type: in vivo, Kochia scoparia; details: application rate 1280 g/ha; visual grading after ca. 3 weeks
Method in brief: as §1

AMARE [14] = assay: Herbicidal pre-emergence action (Table A8); type: in vivo, Amaranthus retroflexus; details: visual grading after ca. 3 weeks vs untreated controls (100% = plants have died off, 0% = as control plants)
From the text: as §4

DIGSA = assay: Herbicidal pre-emergence action (Table A12); type: in vivo, Digitaria sanguinalis; details: visual grading after ca. 3 weeks
Method in brief: as §1

VIOTR = assay: Herbicidal pre-emergence action, section C (Table C12); type: in vivo, Viola tricolor; details: application rate 320 g/ha; visual grading after ca. 3 weeks
From the text: Seeds of mono- and dicotyledonous weed plants and crop plants were sown, in plastic or organic planting pots, in sandy loam and covered with soil. The compounds according to the invention, formulated in the form of wettable powders (WP) or as emulsifiable concentrates (EC), were applied to the surface of the covering soil as aqueous suspension or emulsion, with the addition of 0.5% of an additive, at an application rate of 600 1 of water/ha (converted). Following treatment, the pots were placed in a greenhouse and kept under optimum growth conditions for the test plants.

ZEAMX [15] = assay: Post-emergence effects on crop plants (Table F1); type: in vivo, Zea mays; details: application rate 80 g/ha, crop plant ZEAMX
From the text: (§5) 2 to 3 weeks after sowing, the test plants were sprayed in the single-leaf stage.

ECHCG [16] = assay: Herbicidal pre-emergence action, section C (Table C6); type: in vivo, Echinochloa crus-galli; details: application rate 80 g/ha; visual grading after ca. 3 weeks
ECHCG [17] = assay: Herbicidal post-emergence action, section E (Table E5); type: in vivo, Echinochloa crus-galli; details: application rate 320 g/ha; assessed visually after ca. 3 weeks
From the text: as §5

TRZAS = assay: Post-emergence effects on crop plants (Table F2); type: in vivo, Triticum aestivum; details: application rate 320 g/ha, crop plant TRZAS
From the text: as §5

BRSNW [18] = assay: Post-emergence effects on crop plants (Table F5); type: in vivo, Brassica napus; details: application rate 320 g/ha, crop plant BRSNW
From the text: as §5

ALOMY [19] = assay: Herbicidal pre-emergence action, section C (Table C2); type: in vivo, Alopecurus myosuroides; details: application rate 320 g/ha; visual grading after ca. 3 weeks
LOLRI [20] = assay: Herbicidal pre-emergence action, section C (Table C7); type: in vivo, Lolium rigidum; details: application rate 320 g/ha; visual grading after ca. 3 weeks
GLXMA = assay: Pre-emergence effects on crop plants (Table D4); type: in vivo, Glycine max; details: crop plant; application rate 80 g/ha; visual grading after ca. 3 weeks
ORYZA [21] = assay: Pre-emergence effects on crop plants (Table D3); details: crop plant; application rate 80 g/ha; visual grading after ca. 3 weeks
From the text: Seeds of mono- and dicotyledonous weed plants and crop plants were sown, in plastic or organic planting pots, in sandy loam and covered with soil. The compounds according to the invention, formulated in the form of wettable powders (WP) or as emulsifiable concentrates (EC), were applied to the surface of the covering soil as aqueous suspension or emulsion, with the addition of 0.5% of an additive, at an application rate of 600 1 of water/ha (converted).
Following treatment, the pots were placed in a greenhouse and kept under optimum growth conditions for the test plants.

BRSNW [22] = assay: Pre-emergence effects on crop plants (Table D5); type: in vivo, Brassica napus; details: crop plant; application rate 320 g/ha; visual grading after ca. 3 weeks
ORYZA [23] = assay: Post-emergence effects on crop plants (Table F3); type: in vivo, Oryza sativa; details: application rate 320 g/ha, crop plant ORYZA
From the text: as §5

ZEAMX [24] = assay: Pre-emergence effects on crop plants (Table D1); type: in vivo, Zea mays; details: crop plant; application rate 80 g/ha; visual grading after ca. 3 weeks
SETVI [25] = assay: Herbicidal pre-emergence action, section C (Table C10); type: in vivo, Setaria viridis; details: application rate 320 g/ha; visual grading after ca. 3 weeks
ABUTH [26] = assay: Herbicidal post-emergence action (Table B1); type: in vivo, Abutilon theophrasti; details: application rate 320 g/ha; treated at one-leaf stage; rated visually after about 3 weeks vs untreated controls (100% = plants have died, 0% = like control plants)
Description: as §3

MATIN [27] = assay: Herbicidal post-emergence action (Table B6); type: in vivo, Matricaria inodora; details: application rate 1280 g/ha; rated visually after about 3 weeks
Description: as §3

SMILES	pre-emergence activity against ECHCG (ECHCG [1]; application rate 320 g/ha) [%]	pre-emergence activity against SETVI (SETVI [2]; application rate 320 g/ha) [%]	pre-emergence activity against LOLRI (LOLRI [4]; application rate 1280 g/ha) [%]	post-emergence activity against POAAN (POAAN [5]; application rate 1280 g/ha) [%]	pre-emergence activity against MATIN (MATIN [8]) [%]	pre-emergence activity against POAAN (POAAN [11]; application rate 320 g/ha) [%]	post-emergence activity against AMARE (AMARE [12]; application rate 1280 g/ha) [%]	pre-emergence activity against ECHCG (ECHCG [1]; application rate 1280 g/ha) [%]	pre-emergence activity against SETVI (SETVI [2]; application rate 1280 g/ha) [%]	post-emergence activity against ECHCG (ECHCG [3]; application rate 1280 g/ha) [%]	pre-emergence activity against KCHSC (KCHSC) [%]	also measured
O=C1N(Cc2cccc(Cl)c2F)CCCC12CCCN(Cc1cccc(Cl)c1F)C2=O (racemic) [I-007]	100	100	100	90	90	100	90					pre-emergence activity against STEME (STEME; application rate 1280 g/ha): 90%; post-emergence activity against ECHCG (ECHCG [3]; application rate 320 g/ha): 100%; pre-emergence activity against ALOMY (ALOMY [6]; application rate 1280 g/ha): 90%; post-emergence activity against VERPE (VERPE [7]; application rate 320 g/ha): 90%; pre-emergence activity against VERPE (VERPE [9]): 90%; post-emergence activity against SETVI (SETVI [10]): 90%
O=C1N(Cc2cccs2)CCCC12CCCN(Cc1cccc(F)c1F)C2=O (racemic) [I-040]					90	100	100	100	100	90	90	pre-emergence activity against STEME (STEME; application rate 320 g/ha): 90%; pre-emergence activity against LOLRI (LOLRI [4]; application rate 320 g/ha): 100%; pre-emergence activity against ABUTH (ABUTH [13]): 90%; post-emergence activity against POAAN (POAAN [5]; application rate 320 g/ha): 100%; post-emergence activity against VERPE (VERPE [7]; application rate 1280 g/ha): 90%
O=C1N(Cc2ccsc2)CCCC12CCCN(Cc1ccsc1)C2=O (racemic) [I-046]			90					100	90			pre-emergence activity against STEME (STEME; application rate 320 g/ha): 100%; pre-emergence activity against AMARE (AMARE [14]; application rate 1280 g/ha): 90%; pre-emergence activity against DIGSA (DIGSA; application rate 1280 g/ha): 90%; pre-emergence activity against POAAN (POAAN [11]; application rate 1280 g/ha): 100%
COc1ccccc1CN1CCCC2(CCCN(Cc3cccc(F)c3F)C2=O)C1=O (racemic) [I-052]	100	100								90		pre-emergence activity against VIOTR (VIOTR): 80%; post-emergence activity against ZEAMX (ZEAMX [15]): 0%; pre-emergence activity against ECHCG (ECHCG [16]): 100%; post-emergence activity against ECHCG (ECHCG [17]): 80%; pre-emergence activity against LOLRI (LOLRI [4]; application rate 320 g/ha): 100%; post-emergence activity against TRZAS (TRZAS): 0%; post-emergence activity against BRSNW (BRSNW [18]): 0%; pre-emergence activity against ALOMY (ALOMY [19]): 90%; pre-emergence activity against LOLRI (LOLRI [20]): 90%; pre-emergence activity against GLXMA (GLXMA): 20%; pre-emergence activity against ORYZA (ORYZA [21]): 20%; pre-emergence activity against BRSNW (BRSNW [22]): 0%; post-emergence activity against ORYZA (ORYZA [23]): 20%; pre-emergence activity against ZEAMX (ZEAMX [24]): 0%; pre-emergence activity against SETVI (SETVI [25]): 100%; post-emergence activity against AMARE (AMARE [12]; application rate 320 g/ha): 90%
O=C1N(Cc2cccs2)CCCC12CCCN(Cc1ccccc1F)C2=O (racemic) [I-065]	90	90		90			90				90	pre-emergence activity against LOLRI (LOLRI [4]; application rate 320 g/ha): 100%; pre-emergence activity against ALOMY (ALOMY [6]; application rate 1280 g/ha): 90%
O=C1N(Cc2ccccc2)CCCC12CCCN(Cc1c(F)cccc1F)C2=O (racemic) [I-068]	100	100	90			100	100			90		pre-emergence activity against STEME (STEME; application rate 1280 g/ha): 90%; post-emergence activity against VERPE (VERPE [7]; application rate 1280 g/ha): 90%
COc1ccccc1CN1CCCC2(CCCN(Cc3ccccc3OC)C2=O)C1=O (racemic) [I-071]						100		100				post-emergence activity against ABUTH (ABUTH [26]): 90%
O=C1N(Cc2ccccc2)CCC12CCCN(Cc1cccc(F)c1F)C2=O (racemic) [I-084]			100		90	100		100	100		90	pre-emergence activity against STEME (STEME; application rate 1280 g/ha): 90%; pre-emergence activity against AMARE (AMARE [14]; application rate 1280 g/ha): 90%; pre-emergence activity against DIGSA (DIGSA; application rate 1280 g/ha): 100%
COc1ccccc1CN1CCCC2(CCCN(Cc3ccccc3Cl)C2=O)C1=O (racemic) [I-095]	100						90		90	90		post-emergence activity against VERPE (VERPE [7]; application rate 1280 g/ha): 90%
O=C1N(Cc2ccccc2F)CCC12CCN(Cc1ccccc1F)C2=O (racemic) [I-097]			90		90		90	90	100		90	
O=C1N(Cc2c(F)cccc2F)CCC12CCN(Cc1c(F)cccc1F)C2=O (racemic) [I-101]			90	90	90		90	90	90	90	90	post-emergence activity against MATIN (MATIN [27]): 90%; pre-emergence activity against POAAN (POAAN [11]; application rate 1280 g/ha): 100%
O=C1N(Cc2ccccn2)CCCC12CCCN(Cc1cccc(F)c1F)C2=O (racemic) [I-108]	90				90		90		90			pre-emergence activity against ALOMY (ALOMY [6]; application rate 1280 g/ha): 90%; pre-emergence activity against POAAN (POAAN [11]; application rate 1280 g/ha): 90%
O=C1N(Cc2c(F)cc(F)cc2F)CCCC12CCCN(Cc1c(F)cc(F)cc1F)C2=O (racemic) [I-198, 2,8-bis[(2,4,6-trifluorophenyl)methyl]-2,8-diazaspiro[5.5]undecane-1,7-dione]	100	100		90	90		90				90	pre-emergence activity against STEME (STEME; application rate 320 g/ha): 90%; pest or weed control at 1280 g/ha (ECHCG [3]; Echinochloa crus-galli, post-emergence, 504 h, application rate 1280 g/ha, read-out: post-emergence activity against ECHCG): 90%; pest or weed control at 320 g/ha (LOLRI [4]; Lolium rigidum, pre-emergence, 504 h, application rate 320 g/ha, read-out: pre-emergence activity against LOLRI): 100%; pre-emergence activity against AMARE (AMARE [14]; application rate 320 g/ha): 90%; pre-emergence activity against ALOMY (ALOMY [6]; application rate 320 g/ha): 90%; pre-emergence activity against DIGSA (DIGSA; application rate 320 g/ha): 100%; pre-emergence activity against VERPE (VERPE [9]): 90%; post-emergence activity against SETVI (SETVI [10]): 90%; pest or weed control at 320 g/ha (POAAN [11]; Poa annua, pre-emergence, 504 h, application rate 320 g/ha, read-out: pre-emergence activity against POAAN): 100%
